“Also recorded” adds a separate entry of the source. Where a name gives a salt, the structure may show the parent alone.
What was measured:
VEGFR2 = settings: cited from earlier work; for IC50: read-out: IC50 for VEGFR2 (KDR)
H1666 = settings: H1666, wild-type EGFR; read-out: IC50, inhibiting survival of lung cancer cell line; cited from earlier work
NCI-H1975 = settings: NCI-H1975, L858R/T790M EGFR; read-out: IC50, inhibiting survival of lung cancer cell line; cited from earlier work
H3255 = settings: H3255, Gefitinib sensitive L858R; cited from earlier work
Virttu cell line panel = test: cells; type: cell-based; settings: Homo sapiens; most/all cell lines of panel, 72 hrs; read-out: IC50 (DCP leakage), range over cell lines
HuH7 = type: cell-based, human
Ovcar3 = type: cell-based, human
SKOV3 = type: cell-based, human
CP70 = type: cell-based, human
HepG2-luc = type: cell-based, human
U87 = type: cell-based, human
SPC111 = test: combination with HSV1716, Chou-Talalay, SPC111; type: cell-based, human; settings: SPC111, HSV1716 moi 0.5 and 0.05, 72 hours
Virttu cell panel = test: combination with HSV1716, DCP cell death, Chou-Talalay analysis, cell panel; type: cell-based, human
UVW = type: cell-based, human
HSV1716gfp = test: GFP expression during infection with HSV1716gfp (drug toxicity to virus); type: cell-based, herpes simplex virus
One58 = type: cell-based, human
Hep3B = type: cell-based, human
PDGFRβ = PDGFRβ (Homo sapiens, UniProt P09619); settings: cited from earlier work
c-Met = c-Met (Homo sapiens, UniProt P08581); settings: cited from earlier work
B-Raf = settings: read-out: IC50 for B-Raf; cited from earlier work
[1] = system: human gastric carcinoma xenograft; test: patient-derived human gastric carcinoma xenograft model; parameters: species or system mice; settings: mouse, in vivo
Experimental: HSV1716 (Seprehvir) was used in a personalised oncology study. Patient-derived tumour samples were obtained from a gastric carcinoma. There have been no previous in vitro or in vivo pre-clinical studies with Seprehvir in human gastric carcinoma cells/xenografts. Seprehvir was stored at −70° C., and multiple vials were provided to avoid repeated freeze/thawing.
Two groups of 3 mice with gastric carcinoma implants were treated with 2×10^6 pfu Seprehvir by either intratumoural (IT) or intravenous (IV) routes of administration. Control mice (n=3) received no treatment and in these mice the implants grew rapidly and all were sacrificed within 18 days (FIG. 61). For IV injection, Seprehvir was administered on days 0, 3, 10 and 18, at which point the tumors were too large and the mice were sacrificed.
For IT injection of Seprehvir, 2×10^6 pfu was administered on days 0, 3, 10, 18, 21 and 25.
. Control mice (n=3) received no treatment and in these mice the implants grew rapidly and all were sacrificed within 18 days (FIG. 62). […]. A follow-on study with HSV1716 administering more frequent by IV dosing at the higher concentration of 10^7 pfu was performed using the same human gastric carcinoma xenograft model. […].
Groups of 3 mice received IV injection of HSV1716 at 1×10^7 pfu on days 1, 3, 5, 8, 10, 12, 15, 17 and 19. […]

PARP = PARP cleavage by Western blotting; type: cell-based, human; settings: in combination with HSV1716

Chain of PDGFRβ (P09619 33-1106): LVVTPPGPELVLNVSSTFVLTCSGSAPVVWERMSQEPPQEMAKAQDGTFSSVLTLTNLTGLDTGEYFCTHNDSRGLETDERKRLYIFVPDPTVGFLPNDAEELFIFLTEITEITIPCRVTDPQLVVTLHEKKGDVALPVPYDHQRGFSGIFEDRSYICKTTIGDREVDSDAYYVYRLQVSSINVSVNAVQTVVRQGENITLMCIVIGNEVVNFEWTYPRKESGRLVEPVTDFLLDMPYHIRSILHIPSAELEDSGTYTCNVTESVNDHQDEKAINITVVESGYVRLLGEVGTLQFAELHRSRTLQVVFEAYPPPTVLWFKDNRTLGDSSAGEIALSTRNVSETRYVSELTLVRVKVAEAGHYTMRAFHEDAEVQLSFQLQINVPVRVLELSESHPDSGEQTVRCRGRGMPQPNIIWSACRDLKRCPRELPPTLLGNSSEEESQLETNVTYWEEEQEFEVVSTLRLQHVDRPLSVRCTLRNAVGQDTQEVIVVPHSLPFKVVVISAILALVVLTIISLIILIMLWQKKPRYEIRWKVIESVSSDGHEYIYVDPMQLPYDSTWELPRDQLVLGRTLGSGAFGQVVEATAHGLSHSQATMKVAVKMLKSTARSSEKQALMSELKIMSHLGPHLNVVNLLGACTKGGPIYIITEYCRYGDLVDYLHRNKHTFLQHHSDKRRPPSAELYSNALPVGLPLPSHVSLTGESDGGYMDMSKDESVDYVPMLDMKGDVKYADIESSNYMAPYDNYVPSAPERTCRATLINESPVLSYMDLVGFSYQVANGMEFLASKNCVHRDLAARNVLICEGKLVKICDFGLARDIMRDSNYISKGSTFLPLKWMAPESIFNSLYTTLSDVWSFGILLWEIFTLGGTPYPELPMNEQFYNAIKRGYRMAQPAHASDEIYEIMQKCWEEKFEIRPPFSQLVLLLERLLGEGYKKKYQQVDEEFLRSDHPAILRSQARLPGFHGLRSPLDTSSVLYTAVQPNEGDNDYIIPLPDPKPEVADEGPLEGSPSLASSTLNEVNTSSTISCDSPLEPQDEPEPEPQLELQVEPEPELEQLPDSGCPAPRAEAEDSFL
Chain of c-Met (P08581 25-1390): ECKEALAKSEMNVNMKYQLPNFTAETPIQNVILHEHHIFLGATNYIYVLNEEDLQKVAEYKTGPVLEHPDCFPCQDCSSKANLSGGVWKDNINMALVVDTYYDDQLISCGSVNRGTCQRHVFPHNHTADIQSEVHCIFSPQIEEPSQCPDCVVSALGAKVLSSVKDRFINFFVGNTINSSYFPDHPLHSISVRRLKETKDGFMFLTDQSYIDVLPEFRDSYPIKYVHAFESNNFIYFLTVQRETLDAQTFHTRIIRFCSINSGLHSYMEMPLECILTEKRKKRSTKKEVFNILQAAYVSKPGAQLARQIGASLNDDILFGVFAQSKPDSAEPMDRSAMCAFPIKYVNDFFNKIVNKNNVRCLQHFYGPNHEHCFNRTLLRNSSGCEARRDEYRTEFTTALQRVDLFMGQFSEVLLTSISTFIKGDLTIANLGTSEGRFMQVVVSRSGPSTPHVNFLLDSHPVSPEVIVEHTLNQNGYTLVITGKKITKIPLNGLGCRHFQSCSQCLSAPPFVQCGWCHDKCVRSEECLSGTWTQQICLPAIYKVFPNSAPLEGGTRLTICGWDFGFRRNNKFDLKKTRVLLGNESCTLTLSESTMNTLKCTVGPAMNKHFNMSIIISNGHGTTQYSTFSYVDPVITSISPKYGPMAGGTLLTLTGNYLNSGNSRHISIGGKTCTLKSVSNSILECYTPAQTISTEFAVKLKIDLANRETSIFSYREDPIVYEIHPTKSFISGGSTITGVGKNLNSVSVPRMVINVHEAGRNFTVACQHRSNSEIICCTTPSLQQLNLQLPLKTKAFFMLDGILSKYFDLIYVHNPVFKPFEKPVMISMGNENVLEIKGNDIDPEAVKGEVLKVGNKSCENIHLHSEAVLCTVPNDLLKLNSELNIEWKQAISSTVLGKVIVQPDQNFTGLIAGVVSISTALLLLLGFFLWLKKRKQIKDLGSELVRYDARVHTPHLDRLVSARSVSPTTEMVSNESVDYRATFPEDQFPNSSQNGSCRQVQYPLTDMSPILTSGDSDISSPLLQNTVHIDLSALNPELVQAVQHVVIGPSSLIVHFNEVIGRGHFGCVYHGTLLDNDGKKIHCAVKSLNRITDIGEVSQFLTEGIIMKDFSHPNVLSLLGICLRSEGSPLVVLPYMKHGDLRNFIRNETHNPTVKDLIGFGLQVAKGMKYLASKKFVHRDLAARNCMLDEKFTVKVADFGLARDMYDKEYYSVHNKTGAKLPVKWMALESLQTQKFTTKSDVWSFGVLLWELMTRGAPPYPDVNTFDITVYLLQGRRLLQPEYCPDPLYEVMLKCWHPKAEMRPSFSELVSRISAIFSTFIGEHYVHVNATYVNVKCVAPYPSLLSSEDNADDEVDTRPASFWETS

For `CCN1CCN(Cc2ccc(-c3cc4c(N[C@H](C)c5ccccc5)ncnc4[nH]3)cc2)CC1` [AEE788, 6-[4-[(4-Ethylpiperazin-1-yl)methyl]phenyl]-N-[(1R)-1-phenylethyl]-7H-pyrrolo[2,3-d]pyrimidin-4-amine], the IC50 (VEGFR2) is listed as 0.077 µM.
In the case of `CN(C)CC=CC(=O)Nc1cc2c(Nc3ccc(F)c(Cl)c3)ncnc2cc1O[C@H]1CCOC1` [Afantinib, N-[4-[(3-Chloro-4-fluorophenyl)amino]-7-[[(3S)-tetrahydro-3-furanyl]oxy]-6-quinazolinyl]-4(dimethylamino)-2-butenamide], the IC50 (H1666) is listed as under 0.1 µM, the IC50 (NCI-H1975) is listed as under 0.1 µM and the “IC50, inhibiting survival of lung cancer cell line” value (H3255) is listed as “subnanomolar”.
For `N#CC1(c2ccc(NC(=O)c3cccnc3NCc3ccncc3)cc2)CCCC1` [Apatinib, N-[4-(1-cyanocyclopentyl)phenyl-2-(4-picolyl)amino-3-Nicotinamide methanesulphonate], the IC50 (VEGFR2) is listed as 0.00234 µM.
In the case of `Nc1nccc(Oc2ccc(NC(=O)c3c[nH]cc(-c4ccc(F)cc4)c3=O)cc2F)c1Cl` [BMS 794833, N-(4-((2-amino-3-chloropyridin-4-yl)oxy)-3-fluorophenyl)-5-(4-fluorophenyl)-4-oxo-1,4-dihydropyridine-3-carboxamide], the IC50 (VEGFR2) is listed as 0.015 µM.
For `COc1cc2c(Oc3ccc4[nH]c(C)cc4c3F)ncnc2cc1OCCCN1CCCC1` [Cediranib, 4-[(4-fluoro-2-methyl-1H-indol-5-yl)oxy]-6-methoxy-7-[3-(pyrrolidin-1-yl)propoxy]quinazoline], the IC50 (VEGFR2) is listed as 0.0005 µM.
In the case of `C[C@@H](Oc1cc(-c2cnn(C3CCNCC3)c2)cnc1N)c1c(Cl)ccc(F)c1Cl` [Crizotinib, 3-[(1R)-1-(2,6-dichloro-3-fluorophenyl)ethoxy]-5-(1-piperidin-4-ylpyrazol-4-yl)pyridin-2-amine], the IC50 (Virttu cell line panel) is reported as 2 to 30 µM, the “synergy/antagonism with HSV1716 on cell death (Chou-Talalay)” value (shortened to “synergy/antagonism … (Chou-Talalay)”) (HuH7) is reported as “some limited synergy” and the “synergy/antagonism … (Chou-Talalay)” value (Ovcar3) is reported as “some limited synergy”. For the same compound, the “synergy/antagonism … (Chou-Talalay)” value (SKOV3) was “some limited synergy”, the “synergy/antagonism … (Chou-Talalay)” value (CP70) was “strongly synergistic” and the “synergy/antagonism … (Chou-Talalay)” value (HepG2-luc) was “synergistic”. The “synergy/antagonism … (Chou-Talalay)” value (U87) was “strongly synergistic”, the “synergy/antagonism … (Chou-Talalay)” value (SPC111) was “some limited synergy” and the “number of cell lines in which moi 0.05 generated synergy” value (Virttu cell panel) was 8 of the 9. The “number of cell lines in which moi 0.5 generated synergy” value (Virttu cell panel) was 3 of the 9, the “synergy/antagonism … (Chou-Talalay)” value (UVW) was “strongly synergistic” and the “effect on GFP expression during HSV1716gfp infection” value (shortened to “effect”) (HSV1716gfp; CP70, moi 0.5 and 0.05, 72 hrs) was “increased GFP expression”. For the same compound, the “effect” value (HSV1716gfp; Hep3B, moi 0.5 and 0.05, 72 hrs) was “decreased GFP expression”, the “effect” value (HSV1716gfp; HepG2-luc, both moi (0.5 and 0.05), 72 hrs) was “little effect on GFP expression” and the “effect” value (HSV1716gfp; HuH7, moi 0.5 and 0.05, 72 hrs) was “decreased GFP expression”. For the same compound, the “effect” value (HSV1716gfp; One58, moi 0.5 and 0.05, 72 hrs) was “increased GFP expression”, the “effect” value (HSV1716gfp; Ovcar3, moi 0.5 and 0.05, all drug doses, 72 hrs) was “little effect on GFP expression” and the “effect” value (HSV1716gfp; SPC-111, moi 0.5 and 0.05, all drug doses, 72 hrs) was “little effect on GFP expression”. For the same compound, the “effect” value (HSV1716gfp; Skov3, moi 0.5 and 0.05, all drug doses, 72 hrs) was “little effect on GFP expression”, the “effect” value (HSV1716gfp; U87, moi 0.5 and 0.05, 72 hrs) was “increased GFP expression” and the “effect” value (HSV1716gfp; UVW, moi 0.5 and 0.05, 72 hrs) was “decreased GFP expression”. For the same compound, the “synergy/antagonism … (Chou-Talalay)” value (One58) was “antagonistic”.
With `COc1cc2ncnc(Nc3ccc(F)c(Cl)c3)c2cc1OCCCN1CCOCC1` [Gefitinib, N-(3-chloro-4-fluoro-phenyl)-7-methoxy-6-(3-morpholin-4-ylpropoxy)quinazolin-4-amine] the “overall synergy/antagonism with HSV1716 on cell death” value (Virttu cell panel) was “antagonistic with HSV1716 in all cell lines; also recorded: mostly antagonistic” and the “synergy/antagonism … (Chou-Talalay)” value (Hep3B) was “Synergy”.
For `CCCNC(=O)Nc1ccc(Oc2ncnc3cc(OC)c(OC)cc23)cc1Cl` [KRN 633, N-[2-Chloro-4-[(6,7-dimethoxy-4-quinazolinyl)oxy]phenyl]-N′-propylurea], the IC50 (PDGFRβ) is given as 9.85 µM and the IC50 (VEGFR2) is given as 0.16 µM.
For `CN(C[C@@H]1COCCO1)S(=O)(=O)Nc1ccc2ccc3ncc(-c4cnn(C)c4)cc3c(=O)c2c1` [MK-2461, N-((2R)-1,4-Dioxan-2-ylmethyl)-N-methyl-N′-[3-(1-methyl-1H-pyrazol-4-yl)-5-oxo-5H-benzo[4,5]cyclohepta[1,2-b]pyridin-7-yl]sulfamide], the IC50 (PDGFRβ) is listed as 0.022 µM and the IC50 (c-Met) is listed as 0.0025 µM.
In the case of `CNC(=O)c1cc(Oc2ccc(NC(=O)Nc3ccc(Cl)c(C(F)(F)F)c3)c(F)c2)ccn1.O` [Regorafenib, 4-[4-({[4-Chloro-3-(trifluoromethyl)phenyl]carbamoyl}amino)-3-fluorophenoxy]-N-methylpyridine-2-carboxamide hydrate], the tumour growth inhibition [1] is reported as “highly effective at tumour growth inhibition”.
In the case of `CCN(CC)CCNC(=O)c1c(C)[nH]c(/C=C2\C(=O)Nc3ccc(F)cc32)c1C` [Sunitinib, N-(2-diethylaminoethyl)-5-[(Z)-(5-fluoro-2-oxo-1H-indol-3-ylidene)methyl]-2,4-dimethyl-1H-pyrrole-3-carboxamide], the IC50 (Virttu cell line panel) is reported as 0.5 to 15 µM, the “synergy/antagonism … (Chou-Talalay)” value (SKOV3) is reported as “some evidence of synergy” and the “synergy/antagonism … (Chou-Talalay)” value (CP70) is reported as “strongly synergistic”. For the same compound, the “synergy/antagonism … (Chou-Talalay)” value (HepG2-luc) was “strongly synergistic”, the “synergy/antagonism … (Chou-Talalay)” value (U87) was “strongly synergistic” and the “synergy/antagonism … (Chou-Talalay)” value (SPC111) was “strongly synergistic”. For the same compound, the “number of cell lines in which moi 0.05 generated synergy” value (Virttu cell panel) was 9 of the 10, the “number of cell lines in which moi 0.5 generated synergy” value (Virttu cell panel) was 7 of the 10 and the “number of cell lines tested with clear synergy signals / synergism with HSV1716” value (Virttu cell panel) was 9 of the 10. The “PARP cleavage (executioner phase of apoptosis)” value (PARP; Hep3B cells) was “PARP cleavage demonstrated by Western blotting”, the “PARP cleavage (executioner phase of apoptosis)” value (PARP; Ovcar3 cells) was “PARP cleavage demonstrated by Western blotting” and the “synergy/antagonism … (Chou-Talalay)” value (UVW) was “antagonistic”. For the same compound, the “effect” value (HSV1716gfp; CP70, moi 0.05, 72 hrs) was “more pronounced”, the “effect” value (HSV1716gfp; SPC111, moi 0.05, 72 hrs) was “more pronounced” and the “effect” value (HSV1716gfp; all 9 cell lines tested, moi 0.5 and moi 0.05, 72 hours) was “increased GFP expression”. For the same compound, the “synergy/antagonism … (Chou-Talalay)” value (One58) was “strongly synergistic”.
For `Cc1[nH]c(/C=C2\C(=O)Nc3ccccc32)c(C)c1CCC(=O)O` [TSU-68, (Z)-3-(2,4-dimethyl-5-((2-oxoindolin-3-ylidene)methyl)-1H-pyrrol-3-yl)propanoic acid], the Ki (PDGFRβ; read-out: Ki for PDGFRβ) is given as 0.008 µM and the Ki (VEGFR2; read-out: Ki for VEGFR2 (Flk-1/KDR)) is given as 2.1 µM.
In the case of `Cc1cc(F)c(Nc2ncnc3cc(OCc4ccccc4)ccc23)cc1O` [ZM 323881 HCl, 5-((7-Benzyloxyquinazolin-4-yl)amino)-4-fluoro-2-methylphenol hydrochloride], the IC50 (VEGFR2) is given as under 0.002 µM.
For “N-(2-fluoro-4-((2-(4-(4-methylpiperazin-1-yl)piperidine-1-carboxamido)pyridin-4-yl)oxy)phenyl)-N-(4-fluorophenyl)cyclopropane-1,1-dicarboxamide [Golvatinib]”, the IC50 (c-Met) is listed as 0.014 µM and the IC50 (VEGFR2) is listed as 0.016 µM.
